Test results taken from the supplement of paper PMC8671470.
± gives the standard deviation of the averaged measurements.

How the values were obtained:
Conditions in all cases: 72 h
BV-173 = test system: BV-173
How it was run: (§1)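 In 384-well plates holding acoustically pre-printed compounds at five tenfold doses from 1 to 10,000 nM, in duplicate, fifteen myeloid leukaemia cell lines were grown in RPMI 1640 for 72 h at 37 °C with 5% CO2. Luminescent ATP viability was scaled between vehicle and a positive control at 10 µM. The IC50 was then taken from log-logistic dose–response fits with four parameters.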

HEL [1] = test system: HEL
How it was run: as §1

HL-60 [2] = test system: HL-60
How it was run: as §1

K-562 [3] = test system: K-562
How it was run: as §1

KCL-22 [4] = test system: KCL-22
How it was run: as §1

KG-1 [5] = test system: KG-1
How it was run: as §1

KU-812 [6] = test system: KU-812
How it was run: as §1

LAMA-84 = test system: LAMA-84
How it was run: as §1

ML-2 [7] = test system: ML-2
How it was run: as §1

MOLM-13 [8] = test system: MOLM-13
How it was run: as §1

MV4-11 [9] = test system: MV4-11
How it was run: as §1

Mono-Mac-6 = test system: Mono-Mac-6
How it was run: as §1

NOMO-1 [10] = test system: NOMO-1
How it was run: as §1

SHI-1 [11] = test system: SHI-1
How it was run: as §1

THP-1 [12] = test system: THP-1
How it was run: as §1

HL-60 [13] = experiment: cell viability (% survival relative to DMSO control); higher = less cytotoxic
How it was run: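 Four-parameter log-logistic fits in drc and PharmacoGx supplied area under the curve where it is given. Underlying viability came from CellTiter-Glo, normalised to DMSO and proteasome-inhibitor wells, with the proteasome inhibitor at 10 μM. HL-60 cells in RPMI 1640 plus 10% FBS had been rescreened against the full library at five tenfold concentrations of 1–10,000 nM, in duplicate on 384-well plates, with DMSO or 100 nM of one of three metabolic inhibitors, for 72 h at 37 °C, 5% CO2.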

HEL [14] = experiment: cell viability (% survival relative to DMSO control, bortezomib = 0%); higher = less cytotoxic
How it was run: (§2)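 Fifteen myeloid leukaemia cell lines (10 AML, 5 CML) were seeded at a density titrated to the linear growth range into 384-well plates pre-printed with compounds at 1, 10, 100, 1000 or 10000 nM in duplicate. Plates were incubated for 72 h at 37 °C with 5% CO2. Viability was then read by CellTiter-Glo luminescence. Each value is percent survival averaged over the duplicates, with vehicle set to 100% and a 10 µM positive control to 0%.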

HL-60 [15] = experiment: as above
How it was run: as §2

K-562 [16] = experiment: as above
How it was run: as §2

KCL-22 [17] = experiment: as above
How it was run: as §2

KG-1 [18] = experiment: as above
How it was run: as §2

KU-812 [19] = experiment: as above
How it was run: as §2

ML-2 [20] = experiment: as above
How it was run: as §2

MOLM-13 [21] = experiment: as above
How it was run: as §2

MV4-11 [22] = experiment: as above
How it was run: as §2

NOMO-1 [23] = experiment: as above
How it was run: as §2

SHI-1 [24] = experiment: as above
How it was run: as §2

THP-1 [25] = experiment: as above
How it was run: as §2

Cc1ccc(-c2cc(C(F)(F)F)nn2-c2ccc(S(N)(=O)=O)cc2)cc1 [Celecoxib]
Conditions | IC50 (cell viability) [µM]
BV-173 | > 10
HEL [1] | > 10
HL-60 [2] | > 10
K-562 [3] | > 10
KCL-22 [4] | > 10
KG-1 [5] | > 10
KU-812 [6] | > 10
LAMA-84 | > 10
ML-2 [7] | > 10
MOLM-13 [8] | > 10
MV4-11 [9] | > 10
Mono-Mac-6 | > 10
NOMO-1 [10] | > 10
SHI-1 [11] | > 10
THP-1 [12] | > 10

cell viability [%], HL-60 [13]
Conditions | 0.001 µM | 0.01 µM | 0.1 µM | 1 µM | 10 µM
co-treatment: AZD3965 100 nM | 104 ± 1.8 | 99.7 ± 2.2 | 101 ± 2.7 | 106 ± 7.8 | 114.8 ± 0.68
co-treatment: DMSO vehicle | 103 ± 1.3 | 90.4 ± 19 | 100 ± 3.8 | 105 ± 8.1 | 110.57 ± 0.073
co-treatment: GSK2194069 100 nM | 101 ± 1.5 | 87.7 ± 19 | 97.67 ± 0.35 | 103 ± 6.2 | 104 ± 3
co-treatment: pictilisib 100 nM | 102 ± 3.9 | 98.6 ± 12 | 96.2 ± 5.6 | 122 ± 8.5 | 125 ± 10

cell viability [%]
Conditions | 1 nM | 10 nM | 100 nM | 1000 nM | 10000 nM
HEL [14] | 96.1 | 104 | 89.9 | 99.5 | 97.1
HL-60 [15] | 99.2 | 103 | 84.5 | 188 | 124
K-562 [16] | 96.3 | 86.6 | 85.6 | 95.4 | 78.4
KCL-22 [17] | 101 | 76.4 | 90.7 | 76.9 | 80
KG-1 [18] | 96.8 | 102 | 97.4 | 110 | 93.8
KU-812 [19] | 92.4 | 91.9 | 95.6 | 90.6 | 62.8
ML-2 [20] | 93.5 | 99.2 | 105 | 87.4 | 76.8
MOLM-13 [21] | 81.3 | 85.7 | 85.4 | 139 | 92.5
MV4-11 [22] | 97.5 | 96.4 | 83.7 | 110 | 79.4
NOMO-1 [23] | 101 | 109 | 94.8 | 99.4 | 95.5
SHI-1 [24] | 118 | 104 | 95.6 | 112 | 94.2
THP-1 [25] | 105 | 102 | 105 | 95.5 | 84.7

O=c1c(-c2ccc(O)cc2)coc2cc(O[C@@H]3O[C@H](CO)[C@@H](O)[C@H](O)[C@H]3O)ccc12 [Daidzin]
Conditions | IC50 (cell viability) [µM]
BV-173 | > 10
HEL [1] | > 10
HL-60 [2] | > 10
K-562 [3] | > 10
KCL-22 [4] | > 10
KG-1 [5] | > 10
KU-812 [6] | > 10
LAMA-84 | > 10
ML-2 [7] | > 10
MOLM-13 [8] | > 10
MV4-11 [9] | > 10
Mono-Mac-6 | > 10
NOMO-1 [10] | > 10
SHI-1 [11] | > 10
THP-1 [12] | > 10

cell viability [%], HL-60 [13]
Conditions | 0.001 µM | 0.01 µM | 0.1 µM | 1 µM | 10 µM
co-treatment: AZD3965 100 nM | 94.4 ± 7.1 | 104 ± 6.6 | 102 ± 9.7 | 84.8 ± 30 | 107 ± 9.1
co-treatment: DMSO vehicle | 96.2 ± 3.1 | 102 ± 5.1 | 101.7 ± 0.79 | 98.92 ± 0.91 | 99.7 ± 1.7
co-treatment: GSK2194069 100 nM | 96.5 ± 3.9 | 105 ± 2.1 | 102 ± 3.5 | 98.7 ± 2.4 | 101 ± 11
co-treatment: pictilisib 100 nM | 94 ± 11 | 103 ± 11 | 105 ± 3.9 | 67.6 ± 43 | 98.5 ± 12

cell viability [%]
Conditions | 1 nM | 10 nM | 100 nM | 1000 nM | 10000 nM
HEL [14] | 93 | 93.7 | 107 | 105 | 102
HL-60 [15] | 107 | 99.6 | 100 | 93.9 | 92.7
K-562 [16] | 92.1 | 98.9 | 98.5 | 111 | 106
KCL-22 [17] | 88.6 | 98.9 | 103 | 109 | 111
KG-1 [18] | 99 | 96.6 | 100 | 97.6 | 98.6
KU-812 [19] | 90.9 | 93.6 | 100 | 99.5 | 87.5
ML-2 [20] | 103 | 90.1 | 95.8 | 112 | 97.8
MOLM-13 [21] | 83.9 | 107 | 105 | 99.8 | 99.3
MV4-11 [22] | 91.6 | 84 | 106 | 133 | 98.8
NOMO-1 [23] | 93.4 | 99.7 | 99.4 | 101 | 103
SHI-1 [24] | 93.7 | 106 | 108 | 107 | 103
THP-1 [25] | 97.8 | 98.5 | 97.5 | 106 | 95.4
